Assay results taken from patent US12534487B2, “Compounds for use as iron(III) MRI contrast agents” (The Research Foundation for The State University of New York, priority 2017, dated 2026).

Key:
mice = experiment: In vivo MRI contrast enhancement in mice at 4.7 T; set-up: species or system mouse
Experimental: The necessary solubility of the complexes depends on their effectiveness in producing contrast. For Fe(III) T1 contrast agents that have good relaxivity, the complexes need 100 μM-2 mM solubility. However, other additives such as human serum albumin (has) or meglumine may be used to increase solubility and/or increase relaxivity. Solubility is generally measured in aqueous solution at near neutral pH (e.g., 6.5 to 7.5, including all 0.1 pH values and ranges therebetween) in 100 mM NaCl with 25 mM carbonate and 0.4 mM phosphate. The dose of the composition to be used will necessarily be dependent upon the needs of the individual to whom the composition of the disclosure is to be administered. These factors include, but are not necessarily limited to the weight, age, sex, and medical history of the individual. Shown in FIGS. 15, 16, 17, 18, 19, 20 are data from in vivo MRI studies done in mice. The contrast agent, Fe(TOB) was injected at 0.20 mL of 6.3 mM Fe-TOB-HSA (10.5 mg of HAS or two equivalents of megluamine). […] In vivo imaging in mice. Efficacy of the Fe(III) complexes for in vivo contrast enhancement was studied on at 4.7 T Bruker preclinical MRI in a mouse model (BABC/cJ, Jackson Laboratory). Sealed phantoms were included for imaging sessions for signal normalization. Prior to administration of contrast agents, scans were acquired to serve as baseline values of enhancement. […] Compounds were injected intravenously via tail vein at a dose of 50 μmol [Fe]/kg and MR data were acquired continuously for up to 1 hour after injection to study distribution and clearance kinetics. Thus, 0.2 mL of a 6 mM stock solution was injected into the mouse or 0.05 mmol/Kg. Additional scans were acquired at 3 and 6 hours post-injection to characterize slower clearance rates by the biliary system. The FDA-approved […] contrast agent gadopentetate dimeglumine (Gd-DTPA, Magnevist®) was injected into a separate cohort of mice at 50 μmol [Gd]/kg for comparison. For SPGR datasets, signal intensities were normalized to the phantoms and signal increase for each organ was measured, as well as an increase in contrast-to-noise ratios as compared to back muscle. Fe(III) concentrations were estimated by calculating the increase in T1 rates and dividing by the compound's relaxivity value as determined in vitro.

[1] = Phantom (in vitro) MR imaging at 4.7 T: T1 and T2 relaxivity; type: physicochemical; details: neutral pH, Hepes buffer, 37° C.
Experimental: Eq. 2 predicts that greater numbers of bound water molecules and rapid ligand exchange rate constants (short lifetimes for bound water (Tm)) are advantageous. […] There is an analogous relationship for second-sphere waters although the number and residence time is not well defined. The R1 and R2 relaxivity (from T1 and T2 relaxation rate constants at 4.7 T at 37° C. is shown for several complexes in FIG. 13 and FIG. 14. Data on a 3 Tesla MRI scanner are shown in FIG. 21. Table 1 summarizes R1 and R2 relaxivity data for several Fe(III) complexes.
Preparation of Samples for Phantom MR Imaging: Samples for phantom imaging experiments contained 50-500 μM complex, 20 mM HEPES and 100 mM NaCl. […]
Phantom (in vitro) imaging at 4.7 T. MRI acquisitions were performed using a General Electric 4.7T/33 cm horizontal bore magnet (GE NMR instruments, Fremont, CA) incorporating AVANCE digital electronics (Bruker BioSpec platform with ParaVision v 3.0.2 acquisition software, Bruker Medical, Billerica, MA). […] Signal intensities at each repetition time were sampled by taking the mean intensity within regions of interest (ROI's) using commercially available image processing software (Analyze 7.0, AnalyzeDirect, Overland, KS), and R1 and SMAX were calculated by nonlinear fitting of the equation using Matlab's Curve Fitting Toolbox (Matlab 7.0, MathWorks Inc., Natick, MA). […]

brain tumors = experiment: MRI scans of mice with brain tumors; type: in vivo, mice (C57BL/6NCr); details: C57BL/6NCr mice, 0.05 or 0.1 mmol/kg
Experimental: Mice were dosed with Fe(TOB) at 0.05 mmol/kg Fe(TOB) complex or 0.1 mmol/kg Fe(TOB) complex.

[2] = Benzoate oxidation with peroxide and ascorbate (ROS production); details: 50 μM complex, 50 μM H2O2, 50 μM ascorbate, pH 7.2; [Fe(EDTA)]− oxidation set at 100%
Experimental: Benzoate oxidation with 50 μM complex, 50 μM H2O2 and 50 μM ascorbate at pH 7.2. [Fe(EDTA)]^− oxidation is set at 100%.
It is desirable that the Fe(III) complex remain in the trivalent oxidation state and not be reduced by, for example, peroxide, superoxide, ascorbate, or by glutathione at concentrations present in the extracellular medium of cells such as, for example, mammalian cells (e.g., human cells). Normally, a redox potential more negative than zero mV (<0 mV) versus NHE is sufficient. If the complex were to be reduced to Fe(II) and the Fe(II) complex and the complex has a positive redox potential versus NHE, reactive oxygen species may be produced, for example, as shown in FIG. 8. For example, [Fe(EDTA)]—has a redox potential of approximately 300 mV and produces ROS as shown by the assay in FIG. 11.

[3] = stated in text without conditions; cited from earlier work
[4] = 50 μmol/kg i.v., 4.7 T, compared with the other agents

For `CNC[C@H](O)[C@@H](O)[C@H](O)[C@H](O)CO.CNC[C@H](O)[C@@H](O)[C@H](O)[C@H](O)CO.O=C([O-])CN(CCN(CC(=O)[O-])CC(=O)O)CCN(CC(=O)[O-])CC(=O)O.[Gd+3]` [Gd(DTPA), gadopentetate dimeglumine, reference compound], the “T1 contrast in blood” value (mice; [4]) was “produces larger contrast in blood”.

For `CC([O-])CN1CCN(Cc2ccccc2)CCN(CC(C)[O-])CC1.[Fe+3]` (stereo not drawn) [Fe(TOB)], the “R1 (T1 relaxivity)” value ([1]; 4.7 Tesla MRI scanner, complex alone) was 2.5 mM⁻¹ s⁻¹, the “R1 with HSA” value ([1]; 4.7 Tesla, with human serum albumin) was 3.4 mM⁻¹ s⁻¹ and the “T1 contrast in kidneys” value (mice; [4]) was “greater contrast than Gd(DTPA) in kidney and liver”. The “T1 contrast in liver” value (mice; [4]) was “greater contrast than Gd(DTPA) in kidney and liver”, the “Elimination by the biliary system (gall bladder enhancement)” value (mice; 50 μmol/kg, 30′ and 4 h post-injection) was “strong enhancement of the gall bladder” and the “Removal from the blood” value (mice; 50 μmol/kg, vs. Gd-DTPA) was “faster removal from the blood”. For the same compound, the “Uptake in kidneys and liver” value (mice; 50 μmol/kg, vs. Gd-DTPA) was “Greater uptake”, the “Tissue with highest signal (T1 relaxivity differences in tissue)” value (mice; 0.20 mL of 6.3 mM Fe-TOB-HSA, 30 minute period) was “highest signal is observed in the kidney cortex” and the “Contrast of brain tumors” value (brain tumors) was “produces contrast of brain tumors in mice”.

For `O=C([O-])CN(CCN(CC(=O)[O-])CC(=O)[O-])CC(=O)[O-].[Fe+3]` [[Fe(EDTA)]^−], the “Benzoate oxidation / ROS production” value [2] is listed as “produces ROS” and the redox potential [3] is listed as “approximately 300 mV”.
